Entries after “also recorded” stand apart in the source; their conditions may differ. Like-named read-outs stand apart in the source and are kept apart here.
How the values were obtained:
[1] = biological target: T1, PARP1 (Homo sapiens, UniProt P09874); conditions: purified enzyme assays, background values; cited from earlier work
[2] = mouse models, cited from earlier work
[3] = humans, eight subjects with cancer and eight healthy volunteers; cited from earlier work
[4] = Shelf stability in PBS (10% EtOH); format: physicochemical
[5] = Stability in full human plasma at 37° C.; format: in vitro ADME
[6] = system: MCF-7 empty vector cells; assay: Cellular uptake of ^18F-Talazoparib, MCF-7 empty vector cells; format: cell-based
Experimental: (§1) All experiments were performed in quadruplicate in a 24 well plate format. […] Experiment that abrogated metabolism were performed at 4° C., a temperature at which cellular membranes become less fluid and permeability is low. After 120 min, an aliquot of the cell media (200 μl) was obtained for gamma counting, the remaining media removed, and cells washed with MEBSS. Cells were then lysed with 1% SDS, 10 mM sodium borate for 30 min at room temperature. […] Protein contents were quantified using BCA protein assay kit (Thermos Scientific) according to the manufacture's protocol using bovine serum albumin (BSA) as the protein standard.

[7] = system: MCF-7 cells stably transfected with MDR1 P-glycoprotein (Pgp); assay: Cellular uptake of ^18F-Talazoparib, MCF-7 cells expressing MDR1 Pgp
Experimental: as §1

[8] = biological target: T2, PARP1 (Mus musculus, UniProt P11103); assay: In vivo whole body biodistribution and blocking by small animal PET/CT
T2 construct: from tissue; host or cells: Lymphoid tissue and liver of a living nude female mouse
Experimental: Preliminary PET images were acquired for 10 min using a 15 cm field of view (FOV); CT images were acquired for fusion using a 7 cm FOV and automatically “stitched” and fused to the PET imaging in the reconstruction software (Albira Suite, Bruker). […] Image data were decay corrected to injection time (Albira, Bruker) and expressed as % ID/cc or SUV as indicated (PMOD, PMOD Technologies). Actual injected dose was calculated based on measuring the pre- and post-injection activity in the syringe with a dose calibrator (Capintec) and mice were individually weighed to calculate individual standardized uptake values (SUV).
In vivo whole body biodistribution and blocking experiments were performed using a small animal PET/CT scanner after the injection of ^18F-Talazoparib (˜100 μCi) in a nude female mouse; images were acquired two hours post injection and decay corrected to the injection time.

[9] = biological target: T1, PARP1; assay: PARP1 apoptosis assay kit (Trevigen), inhibition of purified PARP1 enzyme activity; format: biochemical; conditions: racemic mixture, three replicates per concentration

T2 sequence (P11103 whole entry): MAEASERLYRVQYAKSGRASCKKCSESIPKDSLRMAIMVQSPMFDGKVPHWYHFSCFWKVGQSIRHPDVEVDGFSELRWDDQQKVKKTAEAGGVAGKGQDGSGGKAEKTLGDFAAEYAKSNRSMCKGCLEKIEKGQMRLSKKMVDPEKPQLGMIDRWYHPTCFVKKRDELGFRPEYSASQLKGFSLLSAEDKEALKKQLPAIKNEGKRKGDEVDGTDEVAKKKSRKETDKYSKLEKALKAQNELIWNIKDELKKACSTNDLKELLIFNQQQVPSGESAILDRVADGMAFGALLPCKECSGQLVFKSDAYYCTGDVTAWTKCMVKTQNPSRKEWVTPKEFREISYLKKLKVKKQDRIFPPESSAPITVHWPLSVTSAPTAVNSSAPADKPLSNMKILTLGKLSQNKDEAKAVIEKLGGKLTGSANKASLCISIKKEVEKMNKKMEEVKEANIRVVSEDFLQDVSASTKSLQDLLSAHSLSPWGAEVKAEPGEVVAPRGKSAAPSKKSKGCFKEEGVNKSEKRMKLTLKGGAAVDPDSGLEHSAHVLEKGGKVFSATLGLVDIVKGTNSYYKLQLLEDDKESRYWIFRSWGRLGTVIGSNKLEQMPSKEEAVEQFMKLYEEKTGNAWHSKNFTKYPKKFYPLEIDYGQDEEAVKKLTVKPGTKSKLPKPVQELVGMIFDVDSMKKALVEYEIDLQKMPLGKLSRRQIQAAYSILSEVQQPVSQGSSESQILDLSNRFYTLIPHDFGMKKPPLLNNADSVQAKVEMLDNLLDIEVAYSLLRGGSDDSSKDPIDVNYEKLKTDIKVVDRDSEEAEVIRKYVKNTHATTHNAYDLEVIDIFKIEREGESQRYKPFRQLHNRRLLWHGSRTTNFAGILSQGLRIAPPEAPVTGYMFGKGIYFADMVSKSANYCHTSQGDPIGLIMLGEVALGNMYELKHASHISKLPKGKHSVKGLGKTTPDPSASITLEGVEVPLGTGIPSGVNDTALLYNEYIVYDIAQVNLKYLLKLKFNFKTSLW
T1 sequence (P09874 whole entry): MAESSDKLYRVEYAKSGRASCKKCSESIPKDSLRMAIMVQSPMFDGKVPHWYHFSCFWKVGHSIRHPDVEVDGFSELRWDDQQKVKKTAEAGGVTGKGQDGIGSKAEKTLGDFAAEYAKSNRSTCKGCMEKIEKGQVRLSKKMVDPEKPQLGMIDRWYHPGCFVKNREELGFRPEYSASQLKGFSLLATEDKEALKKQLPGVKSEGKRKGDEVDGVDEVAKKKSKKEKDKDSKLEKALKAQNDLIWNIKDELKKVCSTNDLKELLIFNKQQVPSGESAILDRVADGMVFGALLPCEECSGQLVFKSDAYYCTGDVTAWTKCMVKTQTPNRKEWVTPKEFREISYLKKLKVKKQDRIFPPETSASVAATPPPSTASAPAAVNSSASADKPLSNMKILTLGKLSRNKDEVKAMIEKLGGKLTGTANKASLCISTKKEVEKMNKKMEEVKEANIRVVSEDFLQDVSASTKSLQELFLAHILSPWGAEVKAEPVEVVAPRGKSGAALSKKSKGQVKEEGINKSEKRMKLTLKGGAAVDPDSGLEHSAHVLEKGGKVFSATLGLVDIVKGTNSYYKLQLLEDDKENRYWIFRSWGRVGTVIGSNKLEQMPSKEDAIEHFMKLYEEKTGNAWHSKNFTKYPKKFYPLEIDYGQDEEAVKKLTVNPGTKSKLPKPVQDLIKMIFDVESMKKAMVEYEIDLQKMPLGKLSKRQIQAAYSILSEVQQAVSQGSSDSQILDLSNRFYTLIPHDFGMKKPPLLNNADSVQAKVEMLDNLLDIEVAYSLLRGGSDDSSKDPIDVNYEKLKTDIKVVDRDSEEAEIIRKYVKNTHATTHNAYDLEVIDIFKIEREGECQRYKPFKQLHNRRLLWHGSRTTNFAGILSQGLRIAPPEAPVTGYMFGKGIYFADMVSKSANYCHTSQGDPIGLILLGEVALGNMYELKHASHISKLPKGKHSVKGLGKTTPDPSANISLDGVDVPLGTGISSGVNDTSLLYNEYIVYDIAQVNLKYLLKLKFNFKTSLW

In the case of O=C1NCCn2c(-c3ccc(OCCF)cc3)nc3cccc1c32 [^18F-FTT], the IC50 [1] is given as 6.3 nM.

In the case of O=C1NCCn2c(-c3ccc(OCC[18F])cc3)nc3cccc1c32 [^18F-FTT], the “intact parent molecule observed in the blood” value ([2]; after 5 minutes) is listed as 55%, the “intact parent molecule observed in the blood” value ([2]; after 30 min) is listed as 13% and the “organ uptake on PET imaging” value [3] is listed as “high uptake in spleen, pancreas, and liver”.

With Cn1ncnc1C1c2n[nH]c(=O)c3cc([18F])cc(c23)NC1c1ccc(F)cc1 (stereo not drawn) [^18F-Talazoparib, 5-[^18F]fluoro-8-(4-fluorophenyl)-9-(1-methyl·1H·1,2,4-triazol-5-yl)-2,7,8,9-tetrahydro-3H-pyrido[4,3,2-de]phthalazin-3-one] the shelf stability [4] was “up to 4 h”, the “stable in full human plasma” value [5] was “up to 4 h” and the “cell uptake in presence of excess non-radioactive Talazoparib” value ([6]; 37° C., 100 nM non-radioactive Talazoparib preincubated 30 min) was “completely blocked”. The “cell uptake of tracer” value ([6]; 120 min incubation at 37° C., compared to 4° C.) was “high uptake of the tracer compared to cells incubated at 4 °C”, the “effect of MDR inhibitors on cell uptake” value ([6]; LY-335979 or CP-100356 preincubated 30 min) was “no effect” and the “MDR1 Pgp transport substrate” value [7] was “recognized as a transport substrate by MDR1 Pgp”. For the same compound, the “basal retention at 4° C.” value ([7]; MDR1 Pgp expressed, 4° C.) was “further reduced”, the “net retention of tracer” value ([7]; MDR1 Pgp expressed, 37° C., 120 min) was “drastic decrease in the net retention” and the “basal retention with excess cold Talazoparib” value ([7]; MDR1 Pgp expressed, excess cold Talazoparib) was “fully displaced”. The “cellular retention with Pgp-mediated efflux inhibited” value ([7]; MDR1 Pgp expressed, with LY or CP) was “increased back to levels compared to MCF-7 cells lacking MDR1 Pgp”, the “blocking of lymphoid tissue and liver uptake by cold Talazoparib” value ([8]; 0.3 mg/kg cold Talazoparib IV 60 minutes before tracer) was “could be blocked by excess cold Talazoparib; also recorded: blockade of target engagement of PARP1” and the excretion pathway ([8]; 2 hr static images, vehicle-treated nude mice) was “mixed excretion pathway (renal and hepatobiliary clearance)”. For the same compound, the “tissue uptake on PET images” value ([8]; nude female mouse, ~100 μCi, two hours post injection) was “uptake in the lymphoid tissue (LT) located at the base of the neck, in the liver (L), and in excretory organs, such as bladder and intestine”.

For “methyl 2-(4-bromophenyl)-7-fluoro-3-(1-methyl-1H-1,2,4-triazol-5-yl)-4-oxo-1,2,3,4-tetrahydroquinoline-5-carboxylate [Compound 1]”, the IC50 [9] was 2.33 nM.

Reference: US20240279225A1, “COMPOUNDS AND METHODS FOR THERANOSTIC TARGETING OF PARP ACTIVITY” (BOARD OF REGENTS, THE UNIVERSITY OF TEXAS SYSTEM, priority 2021, published 2024)
